Experimental data taken from patent US20250312499A1, “KISSPEPTIN RECEPTOR (KISS1R) TARGETED THERAPEUTICS AND USES THEREOF” (priority 2024, published 2025).
Numbered stars: 1 amine (or outer) side, 2 acyl side, 3 side chain; on linkers, the order of the positions; unused ones are H or OH. Square brackets hold non-standard residues; d marks the D form. Peptide text beside a SMILES is read from it. * marks the point of attachment. DOTA = O=C(O)CN1CCN(CC(=O)O)CCN(CC(=O)*)CCN(CC(=O)O)CC1; Gly(N-(3-F-4-Me-benzyl)) = Cc1ccc(CNCC(=O)*)cc1F; Bpa = N[C@@H](Cc1ccc(C(=O)c2ccccc2)cc1)C(=O)O; Gly(Nα-4-MeO-benzyl) = COc1ccc(CNCC(=O)*)cc1; Butanoyl(4-(4-MePh)) = Cc1ccc(CCCC(=O)*)cc1; Api(1-amidino) = N=C(N)N1CCC(N)(C(=O)O)CC1; Hydrocinnamoyl(4-Me) = Cc1ccc(CCC(=O)*)cc1; d(γGlu) = O=C(O)[C@@H](CCC(=O)[*:2])N[*:1]; Hydrocinnamoyl(4-I) = O=C(CCc1ccc(I)cc1)*; X3 = CNC(=N)N1CCC(N[*:1])(C(=O)[*:2])CC1; d2Nal = N[C@H](Cc1ccc2ccccc2c1)C(=O)O; Palmitoyl = CCCCCCCCCCCCCCCC(=O)*; X1 = O=C(CN1CCC(N[*:1])CC1)[*:2]; 4Pal = N[C@@H](Cc1ccncc1)C(=O)O; Cha = N[C@@H](CC1CCCCC1)C(=O)O; Lauroyl = CCCCCCCCCCCC(=O)*; Api = NC1(C(=O)O)CCNCC1; PEG2 = NCCOCCOCCC(=O)O; Ahx = NCCCCCC(=O)O; azaGly = NNC(=O)O

Molecular target: human kisspeptin receptor (Homo sapiens (Human), UniProt Q969F8)
Sequence (Q969F8 whole entry): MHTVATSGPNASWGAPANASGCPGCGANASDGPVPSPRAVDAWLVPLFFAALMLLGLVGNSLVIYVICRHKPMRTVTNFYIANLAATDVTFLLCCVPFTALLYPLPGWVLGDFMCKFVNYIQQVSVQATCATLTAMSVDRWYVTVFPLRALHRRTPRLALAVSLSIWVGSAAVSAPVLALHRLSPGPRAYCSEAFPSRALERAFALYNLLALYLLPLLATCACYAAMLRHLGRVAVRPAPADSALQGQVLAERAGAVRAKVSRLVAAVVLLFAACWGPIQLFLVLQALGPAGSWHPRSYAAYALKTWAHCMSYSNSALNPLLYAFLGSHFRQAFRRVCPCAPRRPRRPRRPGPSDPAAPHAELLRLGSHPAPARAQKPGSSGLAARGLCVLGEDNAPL
Assay: Human KISS1R binding assay (membrane competition binding)
Settings: 90 min at room temperature; competition with 0.2 nM [125I]-metastin (45-54); Flp-In T-Rex 293 kisspeptin membranes; metal complexes nonradioactive Ga, In, Lu; read-out: hKiSSR Binding Ki (90 min)
Method in brief: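 Membranes from tetracycline-induced (48 h) Flp-In T-Rex 293 cells expressing receptor, 5–10 μg, incubated 90 min at room temperature with 0.2 nM [125I]-metastin (45-54) and competitor (typically 0–10,000 nM) in Tris/Mg/Ca/EGTA/0.1% BSA, pH 7.4. Filtration, washing, counting; Ki by non-linear regression.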

`Cc1ccc(CNCC(=O)N2CCC(NC(=O)[C@H](CC(C)C)NC(=O)NNC(=O)[C@H](Cc3ccccc3)NC(=O)[C@@H](NC(=O)[C@H](CC(N)=O)NC(=O)[C@H](Cc3ccc(C(=O)c4ccccc4)cc3)NC(=O)[C@@H](Cc3ccc(O)cc3)NC(=O)CCCCCNC(=O)CN3CCN(CC(=O)O)CCN(CC(=O)O)CCN(CC(=O)O)CC3)[C@@H](C)O)(C(=O)N[C@@H](Cc3c[nH]c4ccccc34)C(N)=O)CC2)cc1F` [Compound 364] ({DOTA-Ahx}-[dY][Bpa]NTF[azaGly]L[Api](Gly(N-(3-F-4-Me-benzyl)))W-NH2) and `Cc1ccc(CNCC(=O)N2CCC(NC(=O)[C@H](CC(C)C)NC(=O)NNC(=O)[C@H](Cc3ccccc3)NC(=O)[C@@H](NC(=O)[C@H](CC(N)=O)NC(=O)[C@@H](Cc3ccc4ccccc4c3)NC(=O)[C@@H](Cc3ccc(O)cc3)NC(=O)CNC(=O)CN3CCN(CC(=O)O)CCN(CC(=O)O)CCN(CC(=O)O)CC3)[C@@H](C)O)(C(=O)N[C@@H](Cc3c[nH]c4ccccc34)C(N)=O)CC2)cc1F` [Compound 365] ({DOTA}-G[dY][d2Nal]NTF[azaGly]L[Api](Gly(N-(3-F-4-Me-benzyl)))W-NH2) cannot be ordered by Ki: under 0.01 µM for the first, under 0.01 µM for the second.

`CCCCCCCCCCCCCCCC(=O)N[C@H](Cc1ccc(O)cc1)C(=O)N[C@@H](CCCCNC(=O)CN1CCN(CC(=O)O)CCN(CC(=O)O)CCN(CC(=O)O)CC1)C(=O)N[C@@H](CC(N)=O)C(=O)N[C@H](C(=O)N[C@@H](Cc1ccccc1)C(=O)NNC(=O)N[C@@H](CC(C)C)C(=O)NC1(C(=O)N[C@@H](Cc2ccc(O)cc2)C(N)=O)CCN(C(=N)N)CC1)[C@@H](C)O` [Compound 330] (Palmitoyl-[dY]K(DOTA)NTF[azaGly]L[Api(1-amidino)]Y-NH2) and `CCCCCCCCCCCCCCCC(=O)N[C@H](Cc1ccc(O)cc1)C(=O)N[C@@H](CCCCNC(=O)CN1CCN(CC(=O)O)CCN(CC(=O)O)CCN(CC(=O)O)CC1)C(=O)N[C@@H](CC(N)=O)C(=O)N[C@H](C(=O)N[C@@H](Cc1ccccc1)C(=O)NNC(=O)N[C@@H](CC(C)C)C(=O)NC1(C(=O)N[C@@H](Cc2c[nH]c3ccccc23)C(N)=O)CCN(C(=N)N)CC1)[C@@H](C)O` [Compound 328] (Palmitoyl-[dY]K(DOTA)NTF[azaGly]L[Api(1-amidino)]W-NH2) cannot be ordered by Ki: under 0.01 µM for the first, under 0.01 µM for the second.

`CC(C)C[C@H](NC(=O)NNC(=O)[C@H](Cc1ccccc1)NC(=O)[C@@H](NC(=O)[C@H](CC(N)=O)NC(=O)[C@@H](Cc1ccc2ccccc2c1)NC(=O)[C@H](N)Cc1ccc(O)cc1)[C@@H](C)O)C(=O)NC1(C(=O)N[C@@H](Cc2c[nH]c3ccccc23)C(N)=O)CCN(C(=N)N)CC1` [Compound 411] (H-[dY][d2Nal]NTF[azaGly]L[Api(1-amidino)]W-NH2) and `CC(C)C[C@H](NC(=O)NNC(=O)[C@H](Cc1ccccc1)NC(=O)[C@@H](NC(=O)[C@H](CC(N)=O)NC(=O)[C@@H](Cc1ccc2ccccc2c1)NC(=O)[C@@H](Cc1ccc(O)cc1)NC(=O)CCOCCOCCN)[C@@H](C)O)C(=O)NC1(C(=O)N[C@@H](Cc2c[nH]c3ccccc23)C(N)=O)CCN(C(=N)N)CC1` [Compound 410] (H-[PEG2][dY][d2Nal]NTF[azaGly]L[Api(1-amidino)]W-NH2) cannot be ordered by Ki: under 0.01 µM for the first, under 0.01 µM for the second.

`Cc1ccc(CNCC(=O)N2CCC(NC(=O)c3cccc(OCCNC(=O)[C@H](Cc4ccccc4)NC(=O)CCCCCNC(=O)CN4CCN(CC(=O)O)CCN(CC(=O)O)CCN(CC(=O)O)CC4)c3)(C(=O)N[C@@H](Cc3c[nH]c4ccccc34)C(N)=O)CC2)cc1F` [Compound 134] and `Cc1ccc(CNCC(=O)N2CCC(NC(=O)[C@H](CC(C)C)NC(=O)NNC(=O)[C@H](Cc3ccccc3)NC(=O)[C@@H](CC(N)=O)NC(=O)CN3CCN(CC(=O)O)CCN(CC(=O)O)CCN(CC(=O)O)CC3)(C(=O)N[C@@H](Cc3c[nH]c4ccccc34)C(N)=O)CC2)cc1F` [Compound 21] ({DOTA}-[dN]F[azaGly]L[Api](Gly(N-(3-F-4-Me-benzyl)))W-NH2) fall in the same range of Ki: 0.01 to 0.1 µM for the first, 0.01 to 0.1 µM for the second.

`CC(C)C[C@H](NC(=O)NNC(=O)[C@H](Cc1ccccc1)NC(=O)[C@@H](NC(=O)[C@H](CC(N)=O)NC(=O)[C@H](CCCCNC(=O)CN1CCN(CC(=O)O)CCN(CC(=O)O)CCN(CC(=O)O)CC1)NC(=O)[C@@H](Cc1ccc(O)cc1)NC(=O)CC[C@@H](NC(=O)CCc1ccc(I)cc1)C(=O)O)[C@@H](C)O)C(=O)NC1(C(=O)N[C@@H](Cc2c[nH]c3ccccc23)C(N)=O)CCN(C(=N)N)CC1` [Compound 320] ({Hydrocinnamoyl(4-I)-d(γGlu)}-[dY]K(DOTA)NTF[azaGly]L[Api(1-amidino)]W-NH2) and `CC(C)C[C@H](NC(=O)NNC(=O)[C@H](Cc1ccccc1)NC(=O)[C@@H](NC(=O)[C@H](CC(N)=O)NC(=O)[C@@H](Cc1c[nH]c2ccccc12)NC(=O)[C@@H](Cc1ccc(O)cc1)NC(=O)CCCCCNC(=O)CN1CCN(CC(=O)O)CCN(CC(=O)O)CCN(CC(=O)O)CC1)[C@@H](C)O)C(=O)NC1(C(=O)N[C@@H](Cc2c[nH]c3ccccc23)C(N)=O)CCN(C(=N)N)CC1` [Compound 6] ({DOTA-Ahx}-[dY][dW]NTF[azaGly]L[Api(1-amidino)]W-NH2) cannot be ordered by Ki: under 0.01 µM for the first, under 0.01 µM for the second.

`Cc1ccc(CNCC(=O)N2CCC(NC(=O)[C@H](CC(C)C)NC(=O)NNC(=O)[C@H](Cc3ccccc3)NC(=O)[C@@H](NC(=O)[C@H](CC(N)=O)NC(=O)[C@@H](Cc3c[nH]c4ccccc34)NC(=O)[C@@H](Cc3c[nH]cn3)NC(=O)[C@@H](Cc3ccc(O)cc3)NC(=O)CN3CCC(NC(=O)CN4CCN(CC(=O)O)CCN(CC(=O)O)CCN(CC(=O)O)CC4)CC3)[C@@H](C)O)(C(=O)N[C@@H](Cc3c[nH]c4ccccc34)C(N)=O)CC2)cc1F` [Compound 33] ({DOTA}-[X1][dY][dH][dW]NTF[azaGly]L[Api](Gly(N-(3-F-4-Me-benzyl)))W-NH2) and `Cc1ccc(CCCC(=O)NCCCC[C@@H](NC(=O)CCCCCNC(=O)CN2CCN(CC(=O)O)CCN(CC(=O)O)CCN(CC(=O)O)CC2)C(=O)N[C@H](Cc2ccc(O)cc2)C(=O)N[C@H](Cc2ccc3ccccc3c2)C(=O)N[C@@H](CC(N)=O)C(=O)N[C@H](C(=O)N[C@@H](Cc2ccccc2)C(=O)NNC(=O)N[C@@H](CC(C)C)C(=O)NC2(C(=O)N[C@@H](Cc3c[nH]c4ccccc34)C(N)=O)CCN(C(=N)N)CC2)[C@@H](C)O)cc1` [Compound 335] ({DOTA-Ahx}-[dK](Butanoyl(4-(4-MePh)))[dY][d2Nal]NTF[azaGly]L[Api(1-amidino)]W-NH2) cannot be ordered by Ki: under 0.01 µM for the first, under 0.01 µM for the second.

Compared with `COc1ccc(CNCC(=O)N2CCC(NC(=O)[C@@H](CC(C)C)NC(=O)NNC(=O)[C@H](Cc3ccccc3)NC(=O)[C@@H](NC(=O)[C@H](CC(N)=O)NC(=O)[C@H](CCC(=O)O)NC(=O)CN3CCN(CC(=O)O)CCN(CC(=O)O)CCN(CC(=O)O)CC3)[C@@H](C)O)(C(=O)N[C@@H](Cc3ccccc3)C(N)=O)CC2)cc1` [Compound 239] ({DOTA}-ENTF[azaGly][dL][Api](Gly(Nα-4-MeO-benzyl))F-NH2), `CCCCCCCCCCCC(=O)N[C@H](Cc1ccc(O)cc1)C(=O)N[C@@H](CCCCNC(=O)CN1CCN(CC(=O)O)CCN(CC(=O)O)CCN(CC(=O)O)CC1)C(=O)N[C@@H](CC(N)=O)C(=O)N[C@H](C(=O)N[C@@H](Cc1ccccc1)C(=O)NNC(=O)N[C@@H](CC(C)C)C(=O)NC1(C(=O)N[C@@H](Cc2c[nH]c3ccccc23)C(N)=O)CCN(C(=N)N)CC1)[C@@H](C)O` [Compound 329] (Lauroyl-[dY]K(DOTA)NTF[azaGly]L[Api(1-amidino)]W-NH2) is lower in Ki: over 0.1 µM for the first, under 0.01 µM for the second.

`Cc1ccc(CNCC(=O)N2CCC(NC(=O)[C@H](CC(C)C)NC(=O)NNC(=O)[C@H](Cc3ccccc3)NC(=O)CN3CCC(NC(=O)CN4CCN(CC(=O)O)CCN(CC(=O)O)CCN(CC(=O)O)CC4)CC3)(C(=O)N[C@@H](Cc3c[nH]c4ccccc34)C(N)=O)CC2)cc1F` [Compound 28] ({DOTA}-[X1]F[azaGly]L[Api](Gly(N-(3-F-4-Me-benzyl)))W-NH2) and `Cc1ccc(CNCC(=O)N2CCC(NC(=O)[C@H](CC(C)C)NC(=O)NNC(=O)[C@H](Cc3ccccc3)NC(=O)CN3CCC(NC(=O)CN4CCN(CC(=O)O)CCN(CC(=O)O)CCN(CC(=O)O)CC4)CC3)(C(=O)N[C@@H](Cc3ccc(O)cc3)C(N)=O)CC2)cc1F` [Compound 247] ({DOTA}-[X1]F[azaGly]L[Api](Gly(N-(3-F-4-Me-benzyl)))Y-NH2) cannot be ordered by Ki: under 0.01 µM for the first, under 0.01 µM for the second.

`Cc1ccc(CCC(=O)NCCOCCOCCC(=O)N[C@H](Cc2ccc(O)cc2)C(=O)N[C@@H](CCCCNC(=O)CN2CCN(CC(=O)O)CCN(CC(=O)O)CCN(CC(=O)O)CC2)C(=O)N[C@@H](CC(N)=O)C(=O)N[C@H](C(=O)N[C@@H](CC2CCCCC2)C(=O)NNC(=O)N[C@@H](CC(C)C)C(=O)NC2(C(=O)N[C@@H](Cc3c[nH]c4ccccc34)C(N)=O)CCN(C(=N)N)CC2)[C@@H](C)O)cc1` [Compound 326] ({Hydrocinnamoyl(4-Me)-PEG2}-[dY]K(DOTA)NT[Cha][azaGly]L[Api(1-amidino)]W-NH2) and `CC(C)C[C@H](NC(=O)NNC(=O)[C@H](Cc1ccccc1)NC(=O)[C@@H](NC(=O)[C@H](CC(N)=O)NC(=O)[C@@H](Cc1ccc2ccccc2c1)NC(=O)[C@@H](Cc1ccc(O)cc1)NC(=O)CCOCCOCCNC(=O)CCc1ccc(I)cc1)[C@@H](C)O)C(=O)NC1(C(=O)N[C@@H](Cc2c[nH]c3ccccc23)C(N)=O)CCN(C(=N)N)CC1` [Compound 394] ({Hydrocinnamoyl(4-I)-PEG2}-[dY][d2Nal]NTF[azaGly]L[Api(1-amidino)]W-NH2) cannot be ordered by Ki: under 0.01 µM for the first, under 0.01 µM for the second.

`CNC(=N)N1CCC(NC(=O)[C@H](CC(C)C)NC(=O)NNC(=O)[C@H](Cc2ccccc2)NC(=O)CCCCCNC(=O)CN2CCN(CC(=O)O)CCN(CC(=O)O)CCN(CC(=O)O)CC2)(C(=O)N[C@@H](Cc2c[nH]c3ccccc23)C(N)=O)CC1` [Compound 189] ({DOTA-Ahx}-F[azaGly]L[X3]W-NH2) and `Cc1ccc(CNCC(=O)N2CCC(NC(=O)[C@H](CC(C)C)NC(=O)NNC(=O)[C@H](Cc3ccncc3)NC(=O)[C@@H](NC(=O)[C@H](CC(N)=O)NC(=O)CN3CCC(NC(=O)CN4CCN(CC(=O)O)CCN(CC(=O)O)CCN(CC(=O)O)CC4)CC3)[C@@H](C)O)(C(=O)N[C@@H](Cc3ccncc3)C(N)=O)CC2)cc1F` [Compound 258] ({DOTA}-[X1]NT[4Pal][azaGly]L[Api](Gly(N-(3-F-4-Me-benzyl)))[4Pal]-NH2) cannot be ordered by Ki: over 0.1 µM for the first, over 0.1 µM for the second.
